This note sets out measurements from US20240327430A1 (Breakpoint Therapeutics GmbH, priority 2023, published 2024).

The target in the test is truncated Polθ protein (Polθ-Hel containing the helicase domain (67-894)) (Homo sapiens (Human), UniProt O75417). In words: Polθ ATPase assay (Biological Assay 1, ADP-Glo luminescence). Format: biochemical. Conditions: Table B; compounds of Experimental Part B, in vitro; read-out: Polθ ATPase assay IC50. In outline: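 Polθ-Hel (0.5 nM) with 500 nM ssDNA oligo in pH 8.8 Tris buffer (5 mM MgCl2, 1 mM DTT) was preincubated with compound 30 min at 23 °C. The reaction ran 60 min after 60 μM ATP was added (stated as the added solution, not final). ADP formed was detected by ADP-Glo luminescence to derive IC50.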

Where only a bound is given, the exact number is not on record here.

truncated Polθ protein (Polθ-Hel containing the helicase domain (67-894)), sequence (O75417 67-894): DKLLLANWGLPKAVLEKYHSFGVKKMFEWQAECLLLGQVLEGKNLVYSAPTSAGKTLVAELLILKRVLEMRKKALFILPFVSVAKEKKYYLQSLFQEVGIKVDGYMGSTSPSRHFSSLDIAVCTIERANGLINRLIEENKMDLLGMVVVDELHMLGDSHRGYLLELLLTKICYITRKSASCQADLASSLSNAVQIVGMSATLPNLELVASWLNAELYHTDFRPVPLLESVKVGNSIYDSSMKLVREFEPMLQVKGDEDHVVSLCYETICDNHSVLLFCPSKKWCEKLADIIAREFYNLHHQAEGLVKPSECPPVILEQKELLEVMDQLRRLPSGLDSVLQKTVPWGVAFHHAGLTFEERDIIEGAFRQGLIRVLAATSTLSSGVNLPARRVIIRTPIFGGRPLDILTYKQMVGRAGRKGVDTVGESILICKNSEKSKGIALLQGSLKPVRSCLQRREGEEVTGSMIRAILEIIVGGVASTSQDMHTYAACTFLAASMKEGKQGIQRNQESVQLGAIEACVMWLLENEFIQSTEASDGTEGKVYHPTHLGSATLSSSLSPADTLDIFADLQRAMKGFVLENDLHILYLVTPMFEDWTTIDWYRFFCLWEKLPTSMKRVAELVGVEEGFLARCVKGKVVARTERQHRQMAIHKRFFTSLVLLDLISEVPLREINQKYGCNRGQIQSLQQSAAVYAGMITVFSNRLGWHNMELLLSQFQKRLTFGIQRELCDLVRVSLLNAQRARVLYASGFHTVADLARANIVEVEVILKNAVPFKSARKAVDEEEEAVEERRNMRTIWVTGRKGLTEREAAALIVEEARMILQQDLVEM

In general, IC50 refers to the concentration that inhibits the measured activity by half. With `COc1cnc(Cl)cc1-c1cc(C)ncc1C(=O)Nc1nc2c(OCC(=O)N(C)C)ncnc2s1` [Example 108, 2′-chloro-N-{7-[(dimethylcarbamoyl)methoxy]-[1,3]thiazolo[5,4-d]pyrimidin-2-yl}-5′-methoxy-6-methyl-[4,4′-bipyridine]-3-carboxamide], the IC50 was under 100 nM.

For the compound `COc1cnc(Cl)cc1-c1cc(C)ncc1C(=O)Nc1nc2cc(OCC3CCN(C(C)=O)CC3)ccc2s1` [Example 109, N-{5-[(1-acetylpiperidin-4-yl)methoxy]-1,3-benzothiazol-2-yl}-2′-chloro-5′-methoxy-6-methyl-[4,4′-bipyridine]-3-carboxamide], the 50% inhibitory concentration (IC50) is under 100 nM.

In the case of `COc1cnc(Cl)cc1-c1cc(C)ncc1C(=O)Nc1nc2cc(OCC(=O)N(C)C)ccc2s1` [Example 110, 2′-chloro-N-{5-[(dimethylcarbamoyl)methoxy]-1,3-benzothiazol-2-yl}-5′-methoxy-6-methyl-[4,4′-bipyridine]-3-carboxamide], the IC50 was under 100 nM.

`COc1cnc(Cl)cc1-c1cc(C)ncc1C(=O)Nc1nc2cc(OCCN3CCOCC3)ccc2s1` [Example 111, 2′-chloro-5′-methoxy-6-methyl-N-{5-[2-(morpholin-4-yl)ethoxy]-1,3-benzothiazol-2-yl}-[4,4′-bipyridine]-3-carboxamide]: the IC50 was under 100 nM.

As for `COc1cnc(Cl)cc1-c1cc(C)ncc1C(=O)Nc1nc2cc(OC(C)C)ccc2s1` [Example 112, 2′-chloro-5′-methoxy-6-methyl-N-[5-(propan-2-yloxy)-1,3-benzothiazol-2-yl]-[4,4′-bipyridine]-3-carboxamide], the 50% inhibitory concentration (IC50) is under 100 nM.

In the case of `COc1cnc(Cl)cc1-c1cc(C)ncc1C(=O)Nc1nc2cc(OCC3CS(=O)(=O)C3)ccc2s1` [Example 113, 2′-chloro-N-{5-[(1,1-dioxo-1-λ6-thietan-3-yl)methoxy]-1,3-benzothiazol-2-yl}-5′-methoxy-6-methyl-[4,4′-bipyridine]-3-carboxamide], the IC50 lay in the range of 100 to 1000 nM.

Regarding `CCOc1ccc2sc(NC(=O)c3cnc(C)cc3-c3cc(Cl)ncc3OC)nc2c1` [Example 114, 2′-chloro-N-(5-ethoxy-1,3-benzothiazol-2-yl)-5′-methoxy-6-methyl-[4,4′-bipyridine]-3-carboxamide], the IC50 fell in the range of 100 to 1000 nM.

`COc1cnc(Cl)cc1-c1cc(C)ncc1C(=O)Nc1nc2cc(OCCOC(F)(F)F)ccc2s1` [Example 115, 2′-chloro-5′-methoxy-6-methyl-N-{5-[2-(trifluoromethoxy)ethoxy]-1,3-benzothiazol-2-yl}-[4,4′-bipyridine]-3-carboxamide]: the IC50 lay within 100 to 1000 nM.

Consider `COc1cnc(C(F)(F)F)cc1-c1cc(CC(=O)N(C)C)ncc1C(=O)Nc1nc2cncnc2s1` [Example 116, 6-[(dimethylcarbamoyl)methyl]-5′-methoxy-N-{[1,3]thiazolo[5,4d]pyrimidin-2-yl}-2′-(trifluoromethyl)-[4,4′-bipyridine]-3-carboxamide], for which the IC50 was under 100 nM.

For the compound `COc1cnc(C)cc1-c1cc(C)ncc1C(=O)Nc1nc2cnc(N3CCC(O)CC3)nc2s1` [Example 117, N-[5-(4-hydroxypiperidin-1-yl)-[1,3]thiazolo[5,4-d]pyrimidin-2-yl]-5′-methoxy-2′,6-dimethyl-[4,4′-bipyridine]-3-carboxamide], the IC50 was under 100 nM.

Turning to `COc1cnc(Cl)cc1-c1cc(C)ncc1C(=O)Nc1nc2cnc(NCCCCC(=O)O)cc2s1` [Example 119, 5-[(2-{2′-chloro-5′-methoxy-6-methyl-[4,4′-bipyridine]-3-amido}-[1,3]thiazolo[4,5-c]pyridin-6-yl)amino]pentanoic acid], the IC50 is under 100 nM.

For `COc1cnc(Cl)cc1-c1cc(C)ncc1C(=O)Nc1nc2ccc(NCCCCC(=O)O)nc2s1` [Example 120, 5-[(2-{2′-chloro-5′-methoxy-6-methyl-[4,4′-bipyridine]-3-amido}-[1,3]thiazolo[5,4-b]pyridin-5-yl)amino]pentanoic acid], the IC50 is under 100 nM.

As to `COc1cnc(Cl)cc1-c1cc(C)ncc1C(=O)Nc1nc2cc(OCc3nn[nH]n3)ccc2s1` [Example 121, 2′-chloro-5′-methoxy-6-methyl-N-{5-[(2H-1,2,3,4-tetrazol-5-yl)methoxy]-1,3-benzothiazol-2-yl}-[4,4′-bipyridine]-3-carboxamide], the half-inhibitory concentration (IC50) was under 100 nM.

As to `COc1cnc(Cl)cc1-c1cc(C)ncc1C(=O)Nc1nc2cc(O)ccc2s1` [Example 122, 2′-chloro-N-(5-hydroxy-1,3-benzothiazol-2-yl)-5′-methoxy-6-methyl-[4,4′-bipyridine]-3-carboxamide], the IC50 is under 100 nM.

Regarding `COc1cnc(Cl)cc1-c1cc(C)ncc1C(=O)Nc1nc2cc(OCCOC(C)=O)ccc2s1` [Example 123, 2-[(2-{2′-chloro-5'-methoxy-6-methyl-[4,4′-bipyridine]-3-amido}-1,3-benzothiazol-5-yl)oxy]ethyl acetate], the IC50 was under 100 nM.

Take `COc1cnc(Cl)cc1-c1cc(C)ncc1C(=O)Nc1nc2cc(OCCO)ccc2s1` [Example 124, 2′-chloro-N-[5-(2-hydroxyethoxy)-1,3-benzothiazol-2-yl]-5′-methoxy-6-methyl-[4,4′-bipyridine]-3-carboxamide]: the 50% inhibitory concentration (IC50) is under 100 nM.

With `COc1cnc(Cl)cc1-c1cc(C)ncc1C(=O)Nc1nc2c(OCC#N)ncnc2s1` [Example 126, 2′-chloro-N-[7-(cyanomethoxy)-[1,3]thiazolo[5,4-d]pyrimidin-2-yl]-5′-methoxy-6-methyl-[4,4′-bipyridine]-3-carboxamide], the IC50 was under 100 nM.

As to `COc1cnc(Cl)cc1-c1cc(C)ncc1C(=O)Nc1nc2c(OCC(N)=O)ncnc2s1` [Example 127, N-[7-(carbamoylmethoxy)-[1,3]thiazolo[5,4-d]pyrimidin-2-yl]-2′-chloro-5′-methoxy-6-methyl-[4.4′-bipyridine]-3-carboxamide], the IC50 was under 100 nM.

As to `COc1cnc(Cl)cc1-c1cc(C)ncc1C(=O)Nc1nc2ccc(C3COCCN3)cc2s1` (centres unmarked) [Example 128, 2′-chloro-5′-methoxy-6-methyl-N-[6-(morpholin-3-yl)-1,3-benzothiazol-2-yl]-[4,4′-bipyridine]-3-carboxamide], the IC50 is under 100 nM.

On to `COc1cnc(Cl)cc1-c1cc(C)ncc1C(=O)Nc1nc2cnc(NCC(C)(C)O)cc2s1` [Example 130, 2′-chloro-N-{6-[(2-hydroxy-2-methylpropyl)amino]-[1,3]thiazolo[4,5-c]pyridin-2-yl}-5′-methoxy-6-methyl-[4,4′-bipyridine]-3 carboxamide], for which the IC50 is under 100 nM.

As to `COc1cnc(Cl)cc1-c1cc(C)ncc1C(=O)Nc1nc2cnc(N3CC(C)(OC)C3)cc2s1` [Example 131, 2′-chloro-5′-methoxy-N-[6-(3-methoxy-3-methylazetidin-1-yl)-[1,3]thiazolo[4,5-c]pyridin-2-yl]-6-methyl-[4,4′-bipyridine]-3-carboxamide], the IC50 is under 100 nM.

As for `COc1cnc(Cl)cc1-c1cc(C)ncc1C(=O)Nc1nc2c(C)nc(N3CCC(O)CC3)nc2s1` [Example 132, 2′-chloro-N-[5-(4-hydroxypiperidin-1-yl)-7-methyl-[1,3]thiazolo[5,4-d]pyrimidin-2-yl]-5′-methoxy-6-methyl-[4,4′-bipyridine]-3-carboxamide], the 50% inhibitory concentration (IC50) is under 100 nM.

Consider `COc1cnc(Cl)cc1-c1cc(C)ncc1C(=O)Nc1nc2cnc(OCC(C)(C)O)nc2s1` [Example 133, 2′-chloro-N-[5-(2-hydroxy-2-methylpropoxy)-[1,3]thiazolo[5,4-d]pyrimidin-2-yl]-5′-methoxy-6-methyl-[4,4′-bipyridine]-3-carboxamide], for which the IC50 was under 100 nM.
